Counter-ions that a name gives are not always drawn. Like-named read-outs stand apart in the source and are kept apart here.
Experiments:
human OPRM1 (μ, MOR) [1] = biological target: T1, human OPRM1 (μ, MOR) (Homo sapiens, UniProt P35372); format: cell-based; conditions: for ΔRA of compound: relative activity from EC50 and Emax of β-arrestin vs cAMP, lower RA = more G-protein biased
T1 construct: host or cells: CHO-K1
Protocol: In certain embodiments, the ability of a compound to activate G-protein or β-arrestin is not an on/off switch for a given pathway, but rather a continuous function. To capture this, each compound is measured for activity in cell assays that are linked to β-arrestin recruitment and G-protein signaling. By comparing the activity between these two measures (accounting for both EC50 and maximal response reached, Emax) a relative activity (RA) value is determined.
In the case of MOR it is desirable to have high activation of the G-protein pathway while reducing activation of β-arrestin. In the case of the formula above, this means a lower RA.

human OPRM1 (μ, MOR) [2] = biological target: T1, human OPRM1 (μ, MOR); assay: cell-based; conditions: for EC50: PathHunter human OPRM1 Arrestin CHO-K1 cell line, read-out: β-Arrestin EC50; for Emax: OPRM1, read-out: β-Arrestin Emax
Protocol: The Discoverx PathHunter® β-Arrestin assay is used to measure β-arrestin-2 activity. The technology is based on Enzyme Fragment Complementation (EFC) with β-galactosidase (β-Gal) as the reporter. […] EA is fused to Q-arrestin-2, and ED is fused to the C-terminus of the GPCR of interest. When a ligand binds and the GPCR is activated, Q-arrestin-2 is recruited to the receptor resulting in an ED/EA complementation, restoring f-Gal activity, which is measured using chemiluminescence. For this assay, the PathHunter human OPRM1 (μ, MOR) Arrestin CHO-K1 cell line was used.

human OPRM1 (μ, MOR) [3] = biological target: T1, human OPRM1 (μ, MOR); assay: cell-based; conditions: for EC50: PathHunter human OPRM1 Arrestin CHO-K1 cell line, read-out: cAMP EC50; for Emax: OPRM1, read-out: cAMP Emax
Protocol: G-protein signaling was measured via second messenger cAMP modulation. Detection of cAMP modulation was accomplished in the PathHunter human OPRM1 (μ, MOR) Arrestin CHO-K1 cell line using the Dynamic2 cAMP Kit from Cisbio.

T1 sequence (P35372 whole entry): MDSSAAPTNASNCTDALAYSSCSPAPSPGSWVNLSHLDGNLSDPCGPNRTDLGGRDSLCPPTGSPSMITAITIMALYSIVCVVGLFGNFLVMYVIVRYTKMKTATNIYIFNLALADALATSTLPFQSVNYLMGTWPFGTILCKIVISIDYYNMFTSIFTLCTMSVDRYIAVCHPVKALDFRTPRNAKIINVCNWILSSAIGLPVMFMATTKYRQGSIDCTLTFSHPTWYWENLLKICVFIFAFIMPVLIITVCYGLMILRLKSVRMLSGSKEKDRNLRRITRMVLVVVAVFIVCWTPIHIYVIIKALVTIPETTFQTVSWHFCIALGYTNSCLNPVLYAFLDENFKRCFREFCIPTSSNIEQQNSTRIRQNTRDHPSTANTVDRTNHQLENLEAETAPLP

| Structure (SMILES) | melting point | Bias Factor (ΔRA of compound relative to ΔRA of DAMGO) × 10 (human OPRM1 (μ, MOR) [1]) | ΔRA of compound (human OPRM1 (μ, MOR) [1]) | EC50 (human OPRM1 (μ, MOR) [2]) [µM] | EC50 (human OPRM1 (μ, MOR) [3]) [µM] | also measured |
| --- | --- | --- | --- | --- | --- | --- |
| CN(C)C(CNC(=O)NC1CCc2ccccc2C1)c1ccsc1 (stereo not shown) (as salt: hydrochloride) [Compound 10a, 1-(2-(Dimethylamino)-2-(thiophen-3-yl)ethyl)-3-(1,2,3,4-tetrahydronaphthalen-2-yl)urea hydrochloride] | 151 to 153 °C |  |  |  |  |  |
| CN(C)C(CNC(=O)N1Cc2ccc(O)cc2C1)c1ccc(O)cc1 (stereo not shown) (as salt: hydrobromid) [Compound 24, N-(2-(dimethylamino)-2-(4-hydroxyphenyl)ethyl)-5-hydroxyisoindoline-2-carboxamide hydrobromide] | 185 °C (dec.) |  |  |  |  |  |
| CN(C)C(CNC(=O)N1Cc2ccccc2C1)c1ccsc1 (stereo not shown) (as salt: hydrochloride) [Compound 1a, N-(2-(Dimethylamino)-2-(thiophen-3-yl)ethyl)isoindoline-2-carboxamide hydrochloride] | 145 to 150 °C (dec.) |  |  |  |  |  |
| CN(C)C(CNC(=O)N1Cc2cc(F)c(F)cc2C1)c1ccsc1 (stereo not shown) (as salt: hydrochloride) [Compound 6a, N-(2-(dimethylamino)-2-(thiophen-3-yl)ethyl)-5,6-difluoroisoindoline-2-carboxamide hydrochloride] | 210 to 212 °C |  |  |  |  |  |
| CN(C)C(CNC(=O)N1Cc2ccc(F)cc2C1)c1ccccc1 (stereo not shown) (as salt: hydrochloride) [Compound 20a, N-(2-(Dimethylamino)-2-phenylethyl)-5-fluoroisoindoline-2-carboxamide hydrochloride] | 148 to 150 °C |  |  |  |  |  |
| CN(C)C(CNC(=O)N1Cc2cccc(F)c2C1)c1ccsc1 (stereo not shown) (as salt: hydrochloride) [Compound 3a, N-(2-(Dimethylamino)-2-(thiophen-3-yl)ethyl)-4-fluoroisoindoline-2-carboxamide hydrochloride] | 150 to 155 °C (dec.) |  |  |  |  |  |
| Cc1ccc2c(c1)CN(C(=O)NCC(c1ccsc1)N(C)C)C2 (stereo not shown) (as salt: hydrochloride) [Compound 12a, N-(2-(Dimethylamino)-2-(thiophen-3-yl)ethyl)-5-methylisoindoline-2-carboxamide hydrochloride] | 200 to 202 °C (dec.) |  |  |  |  |  |
| CN(C)C(CNC(=O)N1Cc2ccc(Cl)cc2C1)c1ccsc1 (stereo not shown) (as salt: hydrochloride) [Compound 4a, 5-Chloro-N-(2-(dimethylamino)-2-(thiophen-3-yl)ethyl)isoindoline-2-carboxamide hydrochloride] | 210 to 215 °C (dec.) |  |  |  |  |  |
| COc1ccc(C(CNC(=O)N2Cc3ccc(F)cc3C2)N(C)C)cc1 (stereo not shown) (as salt: hydrochloride) [Compound 16a, N-(2-(Dimethylamino)-2-(4-methoxyphenyl)ethyl)-5-fluoroisoindoline-2-carboxamide hydrochloride] | 145 to 149 °C (dec.) |  |  |  |  |  |
| CN(C)C(CNC(=O)N1Cc2ccc(F)cc2C1)c1ccsc1 (single isomer, unassigned) (as salt: hydrochloride) [2a-ent-(+), (+)—N-(2-(Dimethylamino)-2-(thiophen-3-yl)ethyl)-5-fluoroisoindoline-2-carboxamide hydrochloride] | 150 to 155 °C (dec.) |  |  |  |  |  |
| CN(C)C(CNC(=O)N1Cc2ccc(O)cc2C1)c1ccsc1 (stereo not shown) (as salt: hydrobromid) [Compound 22, N-(2-(Dimethylamino)-2-(thiophen-3-yl)ethyl)-5-hydroxyisoindoline-2-carboxamide hydrobromide] | 134 °C (dec.) |  |  |  |  |  |
| COc1ccc2c(c1)CN(C(=O)NCC(c1ccsc1)N(C)C)C2 (stereo not shown) (as salt: hydrochloride) [Compound 5a, N-(2-(Dimethylamino)-2-(thiophen-3-yl)ethyl)-5-methoxyisoindoline-2-carboxamide hydrochloride] | 210 to 215 °C (dec.) |  |  |  |  |  |
| CN(C)C(CNC(=O)N1Cc2ccc(F)cc2C1)c1ccc(F)cc1Cl (stereo not shown) (as salt: hydrochloride) [Compound 17a, N-(2-(2-Chloro-4-fluorophenyl)-2-(dimethylamino)ethyl)-5-fluoroisoindoline-2-carboxamide hydrochloride] | 173 to 174 °C (dec.) |  |  |  |  |  |
| CN(C)C(CNC(=O)N1Cc2ccccc2C1)c1ccc(F)cc1Cl (stereo not shown) (as salt: hydrochloride) [Compound 14a, N-(2-(2-Chloro-4-fluorophenyl)-2-(dimethylamino)ethyl)isoindoline-2-carboxamide hydrochloride] | 147 to 149 °C |  |  |  |  |  |
| COc1ccc(C(CNC(=O)N2Cc3ccccc3C2)N(C)C)cc1 (stereo not shown) (as salt: hydrochloride) [Compound 15a, N-(2-(Dimethylamino)-2-(4-methoxyphenyl)ethyl)isoindoline-2-carboxamide hydrochloride] | 149 to 151 °C (dec.) |  |  |  |  |  |
| CN(C)C(CNC(=O)N(C)C1CCCc2ccccc21)c1ccsc1 (stereo not shown) (as salt: hydrochloride) [Compound 13a, 3-(2-(Dimethylamino)-2-(thiophen-3-yl)ethyl)-1-methyl-1-(1,2,3,4-tetrahydronaphthalen-1-yl)urea hydrochloride] | 188 to 190 °C |  |  |  |  |  |
| CN(C)C(CNC(=O)N1Cc2ccccc2C1)c1ccccc1 (stereo not shown) (as salt: hydrochloride) [Compound 18a, N-(2-(Dimethylamino)-2-phenylethyl)isoindoline-2-carboxamide hydrochloride] | 107 to 108 °C |  |  |  |  |  |
| CN(C)C(CNC(=O)NC1CCc2ccccc2C1)c1ccccc1 (stereo not shown) (as salt: hydrochloride) [Compound 19a, 1-(2-(Dimethylamino)-2-phenylethyl)-3-(1,2,3,4-tetrahydronaphthalen-2-yl)urea hydrochloride] | 160 to 161 °C |  |  |  |  |  |
| CN(C)C(CNC(=O)NC1CCCc2ccccc21)c1ccsc1 (stereo not shown) (as salt: hydrochloride) [Compound 11a, 1-(2-(Dimethylamino)-2-(thiophen-3-yl)ethyl)-3-(1,2,3,4-tetrahydronaphthalen-1-yl)urea hydrochloride] | 179 to 181 °C |  |  |  |  |  |
| CN(C)C(CNC(=O)N[C@H]1CCc2ccccc2C1)c1ccsc1 (stereo partly shown) [Compound 51] |  | <−14.83 | <−2.96 | > 100 | 0.029 | β-Arrestin Emax (human OPRM1 (μ, MOR) [2]): <1%; cAMP Emax (human OPRM1 (μ, MOR) [3]): 64.9% |
| CN(C)C(CNC(=O)N1CCCc2ccccc21)c1ccccc1 (stereo not shown) [Compound 69a] |  | −8.38 | −2.32 | 8.56 | 0.563 | Emax (human OPRM1 (μ, MOR) [2]): 8%; Emax (human OPRM1 (μ, MOR) [3]): 110% |
| CN(C)C1(CNC(=O)N2Cc3ccccc3C2)CCCC1 [Compound 64] |  | <−14.83 | <−2.96 | > 100 | 2.15 | Emax (human OPRM1 (μ, MOR) [2]): < 1%; Emax (human OPRM1 (μ, MOR) [3]): 88.7% |
| CN(C)[C@H](CCNC(=O)N1Cc2ccc(F)cc2C1)c1ccsc1 [Compound 30-R, (R)—N-(3-(Dimethylamino)-3-(thiophen-3-yl)propyl)-5-fluoroisoindoline-2-carboxamide] |  | −5.73 | −2.05 | 5.73 | 0.603 | Emax (human OPRM1 (μ, MOR) [2]): 9.2%; Emax (human OPRM1 (μ, MOR) [3]): 109% |
| CNC(CNC(=O)N1Cc2ccc(F)cc2C1)c1ccc(OC)cc1 (stereo not shown) [Compound 82] |  | <−14.83 | <−2.96 | > 100 | 0.457 | β-Arrestin Emax (human OPRM1 (μ, MOR) [2]): 2.7%; Emax (human OPRM1 (μ, MOR) [3]): 83.2% |
| CN(C)C(CNC(=O)N[C@@H]1CCc2ccc(O)cc2C1)c1ccsc1 (stereo partly shown) [Compound 50] |  | <−14.83 | <−2.96 | > 100 | 0.036 | Emax (human OPRM1 (μ, MOR) [2]): < 1%; Emax (human OPRM1 (μ, MOR) [3]): 48.3% |
| CN(C)C(CNC(=O)N1CC[C@H](c2ccccc2)C1)c1ccsc1 (stereo partly shown) [Compound 40] |  | <−14.83 | <−2.96 | > 100 | 0.152 | Emax (human OPRM1 (μ, MOR) [2]): 3.3%; Emax (human OPRM1 (μ, MOR) [3]): 53.5% |
| CN(C)C(CNC(=O)N1Cc2ccc(F)cc2C1)c1ccc(F)cc1Cl (stereo not shown) [Compound 17a, N-(2-(2-Chloro-4-fluorophenyl)-2-(dimethylamino)ethyl)-5-fluoroisoindoline-2-carboxamide hydrochloride] |  | −12.08 | −2.69 | 5.12 | 0.043 | Emax (human OPRM1 (μ, MOR) [2]): 27%; Emax (human OPRM1 (μ, MOR) [3]): 111% |
| CN(C)[C@@H](CCNC(=O)N1CC[C@@H](c2ccccc2)C1)c1ccsc1 [Compound 77] |  | <−14.83 | <−2.96 | > 100 | 1.1 | Emax (human OPRM1 (μ, MOR) [2]): < 1%; Emax (human OPRM1 (μ, MOR) [3]): 33.2% |
